Assay [1] can be described thus: Non-nucleoside inhibition of NS5B polymerase in HCV genotype 1a by Taqman probe based RT-PCR analysis.
Assay [2] can be described thus: Non-nucleoside inhibition of NS5B polymerase in HCV genotype 3a by Taqman probe based RT-PCR analysis. Background: Quantitative PCR measures a nucleic acid by following its amplification.
Assay [3] in a line: Non-nucleoside inhibition of NS5B polymerase S365A mutant in HCV genotype 1a by Taqman probe based RT-PCR analysis.
Assay [4] is described as follows: Non-nucleoside inhibition of NS5B polymerase in HCV genotype 2a by Taqman probe based RT-PCR analysis.
A short description of assay [5]: Non-nucleoside inhibition of NS5B polymerase C316Y mutant in HCV genotype 1a by Taqman probe based RT-PCR analysis.
The nature of assay [6]: Non-nucleoside inhibition of NS5B polymerase in HCV genotype 2b by Taqman probe based RT-PCR analysis.
Assay [7] in a line: Non-nucleoside inhibition of NS5B polymerase in HCV genotype 4a by Taqman probe based RT-PCR analysis.
Assay [8] in a line: Non-nucleoside inhibition of NS5B polymerase in HCV genotype 1b by Taqman probe based RT-PCR analysis.

As usually defined, the EC50 is the concentration at which the effect is half-maximal. The low end stands for an effect from little substance, the high end for a need for much substance. For `CNC(=O)c1c(-c2ccc(F)cc2)oc2cc(N(C)S(C)(=O)=O)c(-c3ccc4nc(C)n([C@@H](COC)c5ccc(F)cc5)c(=O)c4c3)cc12`, the EC50 is 0.5 nM in assay [1]; 1.1 nM in assay [2]; 17 nM in assay [3]; 7.5 nM in assay [4]; 30 nM in assay [5]; 4.1 nM in assay [6]. Besides, the values for the EC50 in assay [7] and in assay [8] were 0.6 nM and 1.1 nM, respectively.

On to `CNC(=O)c1c(-c2ccc(F)cc2)oc2cc(N(C)S(C)(=O)=O)c(-c3ccc4nnn([C@@H](COC)c5ccc(F)cc5)c(=O)c4c3)cc12` [US9364482, 41], for which the EC50 amounted to 4.9 nM in assay [1]; 1.8 nM in assay [2]; 474 nM in assay [3]; 16 nM in assay [4]; 292 nM in assay [5]; 11 nM in assay [6]. The figures for the EC50 in assay [7] and in assay [8] were 6 nM and 5.6 nM, respectively.

On to `CNC(=O)c1c(-c2ccc(F)cc2)oc2cc(N(C)S(C)(=O)=O)c(-c3cc4c(=O)n(Cc5ccc(F)cc5)nnc4cc3Cl)cc12` [US9364482, 73], for which the EC50 came out at 3 nM in assay [1]; 1.5 nM in assay [2]; 42 nM in assay [3]; 15 nM in assay [4]; 12 nM in assay [5]; 8.8 nM in assay [6]. Further, the half-maximal effective concentration (EC50) came out at 1 nM in assay [7] and 5.5 nM in assay [8].

Turning to `CNC(=O)c1c(-c2ccc(F)cc2)oc2cc(N(C)S(C)(=O)=O)c(-c3ccc4c(n3)C(=O)N(c3ccc(F)cc3)CO4)cc12` [US9364482, 2], the EC50 in assay [1] amounted to 19 nM; in assay [2], 1.5 nM; in assay [3], 1360 nM; in assay [4], 151 nM; in assay [5], 452 nM; in assay [6] it was 19 nM. The 50% effective concentration (EC50) in assay [7] is 8.4 nM; in assay [8] it was 3.8 nM.

In the case of `CNC(=O)c1c(-c2ccc(F)cc2)oc2cc(N(C)S(C)(=O)=O)c(-c3cc4c(=O)n(Cc5ccc(F)cc5)nnc4cc3C)cc12` [US9364482, 72], the EC50 amounted to 2.3 nM in assay [1]; 1.1 nM in assay [2]; 16 nM in assay [3]; 6.6 nM in assay [4]; 6.2 nM in assay [5]; 4.7 nM in assay [6]. In addition, the EC50 in assay [7] turned out to be 1 nM; in assay [8], 4.4 nM.

With `CNC(=O)c1c(-c2ccc(F)cc2)oc2cc(N(C)S(C)(=O)=O)c(-c3cc4c(=O)n(Cc5ccc(F)cc5)nnc4cc3F)cc12` [US9364482, 70], the EC50 came out at 0.7 nM in assay [1]; 1.2 nM in assay [2]; 47 nM in assay [3]; 6.1 nM in assay [4]; 5.6 nM in assay [5]; 2.9 nM in assay [6]. In addition, the EC50 is 1.2 nM in assay [7] and 2.7 nM in assay [8].

Regarding `CNC(=O)c1c(-c2ccc(F)cc2)oc2cc(N(C)S(C)(=O)=O)c(-c3ccc4nc(C)n(Cc5ccc(F)cc5F)c(=O)c4c3)cc12`, the EC50 in assay [1] turned out to be 0.5 nM; in assay [2], 0.9 nM; in assay [3] it was 11 nM; in assay [4], 8.3 nM; in assay [5], 5.4 nM; in assay [6], 5.4 nM. For the same compound, the EC50 in assay [7] was found to be 0.7 nM; in assay [8], 0.8 nM.

On to `CNC(=O)c1c(-c2ccc(F)cc2)oc2cc(N(C)S(C)(=O)=O)c(-c3ccc4nnn(Cc5ccccc5)c(=O)c4c3)cc12` [US9364482, 42], for which the 50% effective concentration (EC50) in assay [1] is 2.3 nM; in assay [2] it was 1 nM; in assay [3], 335 nM; in assay [4], 8.8 nM; in assay [5], 68 nM; in assay [6], 6.2 nM. In addition, the 50% effective concentration (EC50) in assay [7] was 3 nM; in assay [8] it was 3.5 nM.
